Assay results taken from patent US20260174875A1 (Novo Nordisk A/S, priority 2023, published 2026).
Numbered stars: 1 amine (or outer) side, 2 acyl side, 3 side chain; on linkers, the order of the positions; unused ones are H or OH. Square brackets hold non-standard residues; d marks the D form. Side chains are listed from the residue outwards. * marks the point of attachment. C16 diacid = O=C(O)CCCCCCCCCCCCCCC(=O)*; γGlu = O=C(O)[C@H](CCC(=O)[*:2])N[*:1]; AEEA = NCCOCCOCC(=O)O; Aib = CC(C)(N)C(=O)O

What was measured:
[1] = target: T1, human GLP-1 receptor (hGLP-1R) (Homo sapiens, UniProt P43220); assay: GLP-1 receptor assay, method A (CRE-luciferase reporter, BHK cells); assay type: cell-based; conditions: method A, absence of HSA; read-out: hGLP-1R Potency, no HSA, EC50
T1 construct: expressed in transfected cells
T1 sequence (P43220 24-463): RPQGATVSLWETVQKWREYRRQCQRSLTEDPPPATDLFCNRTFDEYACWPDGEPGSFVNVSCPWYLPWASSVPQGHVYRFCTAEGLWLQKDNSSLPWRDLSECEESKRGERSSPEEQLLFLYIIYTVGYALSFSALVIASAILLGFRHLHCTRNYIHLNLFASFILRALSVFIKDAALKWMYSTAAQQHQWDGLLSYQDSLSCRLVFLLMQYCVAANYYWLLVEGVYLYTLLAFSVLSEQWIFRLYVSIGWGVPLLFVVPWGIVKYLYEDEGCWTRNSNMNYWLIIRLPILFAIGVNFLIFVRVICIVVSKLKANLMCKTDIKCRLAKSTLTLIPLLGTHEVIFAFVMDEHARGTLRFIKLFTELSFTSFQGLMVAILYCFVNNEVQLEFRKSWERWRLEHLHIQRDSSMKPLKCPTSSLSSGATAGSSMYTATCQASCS
In short: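 Run in parallel with no HSA and with 1% (w/v) HSA to gauge albumin effects; assay buffer also held 1% ovalbumin, 10 mM HEPES and 0.1% Pluronic F-68. Thawed hGLP-1R BHK CRE-Luc cells incubated 3 h at 37 °C, then luciferase luminescence measured (steadylite Plus).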

[2] = target: T1, human GLP-1 receptor (hGLP-1R); assay: GLP-1 receptor assay, method B (CRE-luciferase reporter, BHK cells, 384-well); assay type: cell-based
Method: To assess how the activation of the receptors is potentially influenced by the presence of human serum albumin (HSA), the in vitro assays were performed in the absence of HSA and presence of 1% (w/v) HSA.
Cells at approximately 80-90% confluence were washed once in PBS (Gibco 14190-094) and loosened from the cell flasks with Versene (Gibco, 15040-033). […] Cells were aliquoted and stored at −180° C. until use.
The assay buffer consisted of DMEM without phenol red (Gibco, 11880-028) supplemented with 1× GlutaMAX (Gibco, 35050-038), 10 mM HEPES (Gibco, 15630-056), 1% (w/v) ovalbumin (Sigma, A5503) and 0.1% (v/v) Pluronic F-68 (Gibco, 24040-032) either with HSA or without HSA (Sigma, A9511).
Serial dilutions were transferred to a 384-well assay plate (PerkinElmer/Revvity, 6007688) and mixed with an equal volume (10 μL) of assay buffer without or with 3% (w/v) HSA (Sigma, A-9511). Frozen stocks of hGLP-1R BHK Cre-Luc cells were thawed in a 37° C. water bath, washed once in PBS (Gibco 14190-094), diluted to 1.5×10^5 (1.5E+5) cells/mL in assay buffer (without HSA) and added (10 μL) to each well of the 384-well assay plate. After a short centrifugation, the assay plates were incubated for 3 hours at 37° C. in 5% CO2 and let to equilibrated at room temperature for 10 minutes before the addition of 30 μL steadylite Plus™ PerkinElmer/Revvity, 6066759) per well. Plates were sealed and incubated at room temperature with gentle shaking for 30 minutes while protected from light. Luminescence was detected on a luminescence plate reader e.g. a Synergy 2 (BioTek).

[3] = target: T2, human GIP receptor (hGIPR) (Homo sapiens, UniProt P48546); assay: GIP receptor assay, method A (CRE-luciferase reporter, BHK cells); assay type: cell-based; conditions: method A, absence of HSA; read-out: hGIPR Potency, no HSA, EC50
T2 construct: expressed in transfected cells
T2 sequence (P48546 22-466): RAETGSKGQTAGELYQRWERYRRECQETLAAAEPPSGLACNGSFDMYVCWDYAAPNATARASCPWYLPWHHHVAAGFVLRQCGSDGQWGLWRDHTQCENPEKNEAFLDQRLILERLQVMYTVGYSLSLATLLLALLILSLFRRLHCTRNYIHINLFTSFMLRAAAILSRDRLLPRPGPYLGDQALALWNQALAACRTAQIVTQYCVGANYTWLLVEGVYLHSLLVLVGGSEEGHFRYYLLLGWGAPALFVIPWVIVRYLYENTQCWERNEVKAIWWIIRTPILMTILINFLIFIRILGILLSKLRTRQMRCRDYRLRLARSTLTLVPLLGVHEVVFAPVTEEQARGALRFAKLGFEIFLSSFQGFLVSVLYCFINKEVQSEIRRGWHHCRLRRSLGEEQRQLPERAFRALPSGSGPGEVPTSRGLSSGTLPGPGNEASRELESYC
In short: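 BHK cells co-expressing hGIPR and a CRE-luciferase reporter, plated 21-23 h before assay, stimulated 3 h at 37 °C with compounds (7-point 10-fold titration, duplicates) in ovalbumin-containing DMEM buffer with or without 1% HSA final. Luminescence read; EC50 (pM) from four-parameter logistic fit with shared Hill slope.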

[4] = target: T2, human GIP receptor (hGIPR); assay: GIP receptor assay, method B (CRE-luciferase reporter, BHK cells, 384-well); assay type: cell-based
[5] = target: T3, human amylin receptor (hAMYR3) (Homo sapiens, UniProt O60896+P30988); assay: Amylin receptor assay, method A (CRE-luciferase reporter, BHK cells); assay type: cell-based; conditions: method A, absence of HSA; read-out: hAMYR3 Potency, no HSA, EC50
T3 construct: host or cells: BHK cells (Hollex-1 line expressing hCTR(a) and CRE-Luc), further transfected with human RAMP3
T3 sequence (P30988 25-474): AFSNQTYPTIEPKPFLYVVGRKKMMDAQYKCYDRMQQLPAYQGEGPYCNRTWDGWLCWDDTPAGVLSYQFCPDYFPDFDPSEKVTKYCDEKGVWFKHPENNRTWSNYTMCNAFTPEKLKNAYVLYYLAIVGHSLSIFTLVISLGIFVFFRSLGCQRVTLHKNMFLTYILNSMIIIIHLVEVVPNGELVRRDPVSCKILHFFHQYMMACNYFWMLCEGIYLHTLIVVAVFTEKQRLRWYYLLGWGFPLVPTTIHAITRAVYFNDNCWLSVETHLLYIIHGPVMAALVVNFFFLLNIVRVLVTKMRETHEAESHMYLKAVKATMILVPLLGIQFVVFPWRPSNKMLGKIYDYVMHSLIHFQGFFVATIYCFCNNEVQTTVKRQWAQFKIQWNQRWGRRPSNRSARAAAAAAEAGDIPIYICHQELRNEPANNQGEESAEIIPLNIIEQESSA
T3 sequence (O60896 24-148): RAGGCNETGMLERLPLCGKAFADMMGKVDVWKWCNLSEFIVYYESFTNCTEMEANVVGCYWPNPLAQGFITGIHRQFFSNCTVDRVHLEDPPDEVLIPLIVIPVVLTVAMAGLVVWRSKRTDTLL

[6] = target: T3, human amylin receptor (hAMYR3); assay: Amylin receptor assay, method B (CRE-luciferase reporter, BHK cells); assay type: cell-based
In short: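 BHK cells with CRE-luciferase, co-expressing hAMYR3 and transfected with human RAMP3, seeded overnight, then exposed 3 h at 37 °C to compound. Buffer: phenol red-free DMEM, 10 mM HEPES, 1% ovalbumin, with 0% or 1% (w/v) HSA. Luminescence read after 30 min with steadylite Plus.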

[7] = Chemical stability assessment in formulation (UPLC-UV-MS purity loss at 37° C.); assay type: physicochemical; conditions: 8 mM phosphate buffer pH 7.4, 1 mg/mL, 2 weeks
In short: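 Peptides at target 1 mg/mL in 8 mM phosphate buffer, pH adjusted to 7.4, incubated in capped vials at 37° C. and sampled over 2 weeks, frozen until analysis. Purity followed by UPLC-UV-MS with a 0.1% formic acid water/acetonitrile gradient.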

[8] = tested on: Male Sprague Dawley (SD) rats; assay: Efficacy testing on appetite: acute food intake in ad libitum fed normal weight rats; assay type: in vivo, rat; conditions: single dose 10 nmol/kg
Excerpt: Male Sprague Dawley (SD) rats from Taconic, Denmark were used for the acute food intake experiments, wherein the principles of laboratory animal care were followed.
The rats arrived at least 10-14 days before the start of the experiment to allow acclimatization to experimental settings. During this period, the animals were handled (fixation by restrain in neck skin) at least 2 times. Immediately upon arrival, rats were changed to a reversed light cycle (dark from 11 am-11 pm) and were transferred to an automated food intake measuring system (HM2 system, MBRose; Faaborg, Denmark). […] To enable recording of individual food intake, rats were ID chipped. Three rats were housed in each cage. During the acclimatization period, in which the rats get used to the new light cycle and diet (LF 10% (D12450B), from Research Diets Inc.), the animals had free access to food and water. Since rats are normally active and consume most of their daily calories during the dark period, rats were dosed in the morning right before lights were turned off. Such a set-up results in the lowest data variation and highest test sensitivity. […] In each cage there were animals from three different treatment groups (to eliminate potential cage effects (e.g. cage malfunction) on primary readout: food intake). The rats were dosed once subcutaneously (s.c.) with the peptide of interest according to body weight (10 or 30 nmol/kg) in vehicle (0.5 ml/kg) using a NovoPen® (Novo Nordisk, Bagsvæed, Denmark).
The compounds of the invention were formulated (20 or 60 nmol/ml) in the following vehicle: 8 mM phosphate; 250 mM glycerol; 0.007% polysorbate 20, pH 7.4.
After dosing, the rats were returned to their home cages, where they continued to have ad libitum access to chow and water. The food consumption was recorded individually and continuously by the HM2 system from 0-72 h after test compound administration. Data obtained by the HM-2 system were stored in a HMBase SQL database (Firebird® relational database management system) and were processed by HM2Lab software (MBRose; Faaborg, Denmark) installed in an embedded computer. The feeding system is a highly sensitive system with a load resolution of 0.001 g.

[9] = hGLP-1R Potency, 1% HSA, EC50, methods B, in the presence of 1% HSA
[10] = hGIPR Potency, 1% HSA, EC50, methods B, in the presence of 1% HSA
[11] = hAMYR3 Potency, 1% HSA, EC50, methods B, in the presence of 1% HSA
[12] = method B, absence of HSA, read-out: hGLP-1R Potency, no HSA, EC50
[13] = method B, absence of HSA, read-out: hGIPR Potency, no HSA, EC50
[14] = method B, absence of HSA, read-out: hAMYR3 Potency, no HSA, EC50

Molecule | EC50 [1] [nM] | EC50 [2, 9] [nM] | EC50 [3] [nM] | EC50 [4, 10] [nM] | EC50 [5] [nM] | EC50 [6, 11] [nM] | EC50 [2, 12] [nM] | EC50 [4, 13] [nM] | EC50 [6, 14] [nM] | Purity loss per week at 37° C. [7] [%] | Food intake (relative to vehicle) Day 1 ([8]; day 1 [0-24 hours]) [%] | Food intake (relative to vehicle) Day 2 ([8]; day 2 [24-48 hours]) [%] | Food intake (relative to vehicle) Day 3 ([8]; day 3 [48-72 hours]) [%]
Y[Aib]EGTFTSDYSILLEEQAAREFIEWLLAGGPSK([AEEA-AEEA-γGlu-C16 diacid])GEASELSTAALGRLSAELHRLATLPRTETGSGSP-NH2 [Compound 18] | 0.0528 | 0.135 | 0.00725 | 0.0201 | 0.00393 | 1.3 |  |  |  |  |  |  | 
CC[C@H](C)[C@H](NC(=O)[C@H](CCC(=O)O)NC(=O)[C@H](CCC(=O)O)NC(=O)[C@H](CC(C)C)NC(=O)[C@H](CC(C)C)NC(=O)[C@@H](NC(=O)[C@H](CO)NC(=O)[C@H](Cc1ccc(O)cc1)NC(=O)[C@H](CC(=O)O)NC(=O)[C@H](CO)NC(=O)[C@@H](NC(=O)[C@H](Cc1ccccc1)NC(=O)[C@@H](NC(=O)CNC(=O)[C@H](CCC(=O)O)NC(=O)C(C)(C)NC(=O)[C@@H](N)Cc1ccc(O)cc1)[C@@H](C)O)[C@@H](C)O)[C@@H](C)CC)C(=O)N[C@@H](C)C(=O)N[C@@H](C)C(=O)N[C@@H](CCCNC(=N)N)C(=O)N[C@@H](CCC(=O)O)C(=O)N[C@@H](Cc1ccccc1)C(=O)N[C@H](C(=O)N[C@@H](CCC(=O)O)C(=O)N[C@@H](Cc1c[nH]c2ccccc12)C(=O)N[C@@H](CC(C)C)C(=O)N[C@@H](CC(C)C)C(=O)N[C@@H](C)C(=O)NCC(=O)NCC(=O)N1CCC[C@H]1C(=O)N[C@@H](CO)C(=O)N[C@@H](CO)C(=O)N[C@@H](CCC(=O)O)C(=O)N[C@@H](C)C(=O)NCC(=O)N[C@@H](CCC(N)=O)C(=O)N[C@@H](C)C(=O)N1CCC[C@H]1C(=O)NCC(=O)N[C@@H](CCC(N)=O)C(=O)N[C@@H](C)C(=O)N1CCC[C@H]1C(=O)NCC(=O)N[C@@H](C)C(=O)N[C@@H](CO)C(=O)N[C@@H](Cc1c[nH]cn1)C(=O)N[C@@H](CC(C)C)C(=O)N[C@@H](CO)C(=O)N[C@H](C(=O)N[C@@H](C)C(=O)N[C@@H](CCC(N)=O)C(=O)N[C@H](C(=O)N[C@@H](CCC(N)=O)C(=O)N[C@@H](CCCNC(=N)N)C(=O)N[C@@H](CC(C)C)C(=O)N[C@@H](CO)C(=O)N[C@@H](C)C(=O)N[C@@H](CCC(=O)O)C(=O)N[C@@H](CC(C)C)C(=O)N[C@@H](Cc1c[nH]cn1)C(=O)N[C@@H](CCCCNC(=O)COCCOCCNC(=O)COCCOCCNC(=O)CC[C@H](NC(=O)CCCCCCCCCCCCCCCCCCC(=O)O)C(=O)O)C(=O)N[C@@H](CC(C)C)C(=O)N[C@@H](C)C(=O)N[C@H](C(=O)N[C@@H](CCC(=O)O)C(=O)N1CCC[C@H]1C(=O)N[C@@H](CCCNC(=N)N)C(=O)N[C@H](C(=O)N[C@@H](CCC(=O)O)C(=O)N[C@H](C(=O)NCC(=O)N[C@@H](CO)C(=O)NCC(=O)N[C@@H](CO)C(=O)N1CCC[C@H]1C(N)=O)[C@@H](C)O)[C@@H](C)O)[C@@H](C)O)[C@@H](C)O)[C@@H](C)O)[C@@H](C)CC [Compound 165] |  | 0.0888 |  | 0.00764 |  | 0.537 | 0.0251 | 0.00239 | 0.0094 | 1.0 |  |  | 
CC[C@H](C)[C@H](NC(=O)[C@H](CCC(=O)O)NC(=O)[C@H](CCC(=O)O)NC(=O)[C@H](CC(C)C)NC(=O)[C@H](CC(C)C)NC(=O)[C@@H](NC(=O)[C@H](CO)NC(=O)[C@H](Cc1ccc(O)cc1)NC(=O)[C@H](CC(=O)O)NC(=O)[C@H](CO)NC(=O)[C@@H](NC(=O)[C@H](Cc1ccccc1)NC(=O)[C@@H](NC(=O)CNC(=O)[C@H](CCC(=O)O)NC(=O)C(C)(C)NC(=O)[C@@H](N)Cc1ccc(O)cc1)[C@@H](C)O)[C@@H](C)O)[C@@H](C)CC)C(=O)N[C@@H](C)C(=O)N[C@@H](C)C(=O)N[C@@H](CCCNC(=N)N)C(=O)N[C@@H](CCC(=O)O)C(=O)N[C@@H](Cc1ccccc1)C(=O)N[C@H](C(=O)N[C@@H](CCC(=O)O)C(=O)N[C@@H](Cc1c[nH]c2ccccc12)C(=O)N[C@@H](CC(C)C)C(=O)N[C@@H](CC(C)C)C(=O)N[C@@H](C)C(=O)NCC(=O)NCC(=O)N1CCC[C@H]1C(=O)N[C@@H](CO)C(=O)N[C@@H](CO)C(=O)NCC(=O)N[C@@H](C)C(=O)NCC(=O)N[C@@H](C)C(=O)N[C@@H](CO)C(=O)N[C@@H](CCC(=O)O)C(=O)N[C@@H](CC(C)C)C(=O)N[C@@H](CO)C(=O)N[C@H](C(=O)N[C@@H](C)C(=O)N[C@@H](CCC(N)=O)C(=O)N[C@H](C(=O)N[C@@H](CCC(N)=O)C(=O)N[C@@H](CCCNC(=N)N)C(=O)N[C@@H](CC(C)C)C(=O)N[C@@H](CO)C(=O)N[C@@H](C)C(=O)N[C@@H](CCC(=O)O)C(=O)N[C@@H](CC(C)C)C(=O)N[C@@H](Cc1c[nH]cn1)C(=O)N[C@@H](CCCCNC(=O)COCCOCCNC(=O)COCCOCCNC(=O)CC[C@H](NC(=O)CCCCCCCCCCCCCCCCCCC(=O)O)C(=O)O)C(=O)N[C@@H](CC(C)C)C(=O)N[C@@H](C)C(=O)N[C@H](C(=O)N[C@@H](CC(C)C)C(=O)N1CCC[C@H]1C(=O)N[C@@H](CCCNC(=N)N)C(=O)N[C@H](C(=O)N[C@@H](CCC(=O)O)C(=O)N[C@H](C(=O)NCC(=O)N[C@@H](CO)C(=O)NCC(=O)N[C@@H](CO)C(=O)N1CCC[C@H]1C(N)=O)[C@@H](C)O)[C@@H](C)O)[C@@H](C)O)[C@@H](C)O)[C@@H](C)O)[C@@H](C)CC [Compound 176] |  | 0.178 |  | 0.0238 |  | 0.798 | 0.0299 | 0.00366 | 0.0112 |  | −12 | 2 | 7
